Data: paper PMC4306520 (Journal of Medicinal Chemistry, 2014)

Assays:
[1] = system: other Ser hydrolases in PANC-1 cell lysate; assay: Serine hydrolase FP probe displacement assay, other serine hydrolases; type: binding, human; details: 5 μM FP probe
[2] = system: BxPC-3 cells; assay: Intracellular pH; type: cell-based, human; details: BxPC-3, different concentrations, 72 h
[3] = system: FASN; assay: Western blot of FASN expression; type: cell-based, human
[4] = system: BxPC-3 cells; assay: Extracellular pH; type: cell-based, human; details: BxPC-3, 100 μM, 72 h, data not shown
[5] = system: BxPC-3 cells; assay: Apoptosis assay; type: cell-based, human
[6] = system: PANC-1/FASN and PANC-1/Vec cells; assay: Colony formation survival assay, PANC-1/FASN vs PANC-1/Vec; type: cell-based, human
[7] = system: BxPC-3 cells; assay: MTT assay with palmitate supplementation; type: cell-based, human
[8] = target: FASN in PANC-1 cell lysate (Homo sapiens, UniProt P49327); assay: Serine hydrolase FP probe displacement assay, FASN; type: binding; details: 5 μM FP probe
FASN in PANC-1 cell lysate, sequence (P49327 whole entry): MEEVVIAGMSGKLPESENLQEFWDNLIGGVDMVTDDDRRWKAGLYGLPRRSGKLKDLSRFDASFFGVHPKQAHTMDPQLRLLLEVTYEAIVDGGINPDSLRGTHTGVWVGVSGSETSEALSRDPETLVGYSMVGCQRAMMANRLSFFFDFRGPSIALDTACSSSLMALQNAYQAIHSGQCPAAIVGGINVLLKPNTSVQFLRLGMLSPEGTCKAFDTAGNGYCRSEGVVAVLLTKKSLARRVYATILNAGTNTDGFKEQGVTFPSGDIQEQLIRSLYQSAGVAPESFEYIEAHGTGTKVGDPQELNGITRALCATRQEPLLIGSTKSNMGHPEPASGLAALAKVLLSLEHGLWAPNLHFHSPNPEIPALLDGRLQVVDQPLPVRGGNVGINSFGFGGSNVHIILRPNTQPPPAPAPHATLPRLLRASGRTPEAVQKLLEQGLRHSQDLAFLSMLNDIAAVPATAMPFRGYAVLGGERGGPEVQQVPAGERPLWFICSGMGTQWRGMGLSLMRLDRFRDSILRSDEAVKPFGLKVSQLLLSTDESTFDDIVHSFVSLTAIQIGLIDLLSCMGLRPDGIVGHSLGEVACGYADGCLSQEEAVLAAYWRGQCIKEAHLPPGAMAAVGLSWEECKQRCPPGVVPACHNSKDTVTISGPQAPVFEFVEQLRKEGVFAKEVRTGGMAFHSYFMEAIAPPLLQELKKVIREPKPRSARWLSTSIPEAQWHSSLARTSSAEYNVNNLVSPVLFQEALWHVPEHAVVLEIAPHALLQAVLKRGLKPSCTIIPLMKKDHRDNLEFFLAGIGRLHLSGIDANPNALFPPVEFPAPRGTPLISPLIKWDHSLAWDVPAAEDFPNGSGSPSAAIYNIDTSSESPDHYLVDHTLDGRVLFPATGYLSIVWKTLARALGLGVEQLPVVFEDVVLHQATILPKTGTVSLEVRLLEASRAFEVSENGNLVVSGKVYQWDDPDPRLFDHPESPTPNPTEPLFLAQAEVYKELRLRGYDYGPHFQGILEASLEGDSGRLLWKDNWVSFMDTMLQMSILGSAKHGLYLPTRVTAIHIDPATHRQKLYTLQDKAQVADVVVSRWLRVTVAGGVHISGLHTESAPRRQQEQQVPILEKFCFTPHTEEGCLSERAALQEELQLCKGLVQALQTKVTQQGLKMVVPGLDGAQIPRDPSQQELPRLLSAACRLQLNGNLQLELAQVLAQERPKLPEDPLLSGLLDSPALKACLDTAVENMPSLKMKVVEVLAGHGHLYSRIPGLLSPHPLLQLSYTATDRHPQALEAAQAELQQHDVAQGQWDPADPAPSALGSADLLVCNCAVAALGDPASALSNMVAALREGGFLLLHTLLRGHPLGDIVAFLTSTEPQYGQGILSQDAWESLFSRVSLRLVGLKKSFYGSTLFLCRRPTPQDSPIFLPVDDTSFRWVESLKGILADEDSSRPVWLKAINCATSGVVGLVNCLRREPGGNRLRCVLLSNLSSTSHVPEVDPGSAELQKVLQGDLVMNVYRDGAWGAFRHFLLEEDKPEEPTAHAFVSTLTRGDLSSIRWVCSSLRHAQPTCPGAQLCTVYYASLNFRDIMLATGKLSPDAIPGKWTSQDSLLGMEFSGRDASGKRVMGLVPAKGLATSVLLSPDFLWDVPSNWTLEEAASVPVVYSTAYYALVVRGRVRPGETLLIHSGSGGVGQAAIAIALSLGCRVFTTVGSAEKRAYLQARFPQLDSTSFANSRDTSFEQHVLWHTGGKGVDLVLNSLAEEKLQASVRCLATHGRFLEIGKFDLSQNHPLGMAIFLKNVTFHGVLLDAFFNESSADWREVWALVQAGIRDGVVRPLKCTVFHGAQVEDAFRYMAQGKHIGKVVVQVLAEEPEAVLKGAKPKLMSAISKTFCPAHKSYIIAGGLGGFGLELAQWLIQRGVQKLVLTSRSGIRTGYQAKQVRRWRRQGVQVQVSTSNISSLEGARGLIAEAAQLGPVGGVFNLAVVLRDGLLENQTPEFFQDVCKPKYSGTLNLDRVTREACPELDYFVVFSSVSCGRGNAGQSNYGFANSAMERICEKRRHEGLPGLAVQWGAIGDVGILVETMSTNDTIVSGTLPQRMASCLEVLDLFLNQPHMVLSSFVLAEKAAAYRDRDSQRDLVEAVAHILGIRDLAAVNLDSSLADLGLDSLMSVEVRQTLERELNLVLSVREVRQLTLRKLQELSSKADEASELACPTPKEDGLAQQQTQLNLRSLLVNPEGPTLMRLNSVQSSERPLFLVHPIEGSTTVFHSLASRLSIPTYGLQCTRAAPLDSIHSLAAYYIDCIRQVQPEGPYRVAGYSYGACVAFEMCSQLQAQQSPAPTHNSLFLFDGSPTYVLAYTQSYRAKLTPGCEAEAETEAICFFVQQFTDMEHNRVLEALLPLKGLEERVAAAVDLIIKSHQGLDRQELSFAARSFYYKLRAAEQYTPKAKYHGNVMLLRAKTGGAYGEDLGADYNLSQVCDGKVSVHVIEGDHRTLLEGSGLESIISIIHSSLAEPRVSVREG

| Structure (SMILES) | effect on binding of FP probe to other Ser hydrolases [1] | effect on intracellular pH [2] | effect on total FASN level ([3]; lansoprazole treatment, Figure 4D) | effect on extracellular pH [4] | effect of palmitate supplementation on lansoprazole-induced apoptosis ([5]; 3.75 μM palmitate) | induction of apoptosis (DNA fragments, cleaved PARP-1) ([5]; ELISA 72 h, PARP Western blot 24 h) | sensitivity of PANC-1/FASN cells versus PANC-1/Vec cells [6] | effect of palmitate supplementation on lansoprazole cytotoxicity ([7]; 3.75 μM palmitate) | inhibition of FP serine hydrolase probe labeling of FASN [8] | effect of palmitate on FASN expression ([3]; 3.75 μM palmitate, Figure 5B) | effect of palmitate alone on cell survival ([7]; BxPC-3, 3.75 μM) |
| --- | --- | --- | --- | --- | --- | --- | --- | --- | --- | --- | --- |
| Cc1c(OCC(F)(F)F)ccnc1C[S+]([O-])c1nc2ccccc2[nH]1 (centres unmarked) [Lansoprazole] | no effect on the binding of the FP probe to other Ser hydrolases | no significant effect on intracellular pH | no effect on the total FASN level | no change in extracellular pH | reduced lansoprazole-induced apoptosis | dose-dependently caused formation of DNA fragments and cleaved PARP-1 | significantly more sensitive to lansoprazole than the control PANC-1/Vec cells | significantly increased cellular resistance to lansoprazole | inhibited labeling of FASN by the FP probe in a dose-dependent manner |  |  |
| CCCCCCCCCCCCCCCC(=O)O [palmitate] |  |  |  |  |  |  |  |  |  | did not reduce FASN expression | no significant effect on BxPC-3 cell survival |
